Assay results as given in patent US20150366788A1, “[…] EXTRACTS AND METHODS OF USE” (AVON PRODUCTS, INC, priority 2013, published 2015).

Test system: dorsal forearm skin of healthy female Caucasian subjects
Test: In vivo biopsy (forearm patch, histology endpoints)
Set-up: species or system human
Details: 0.05% active (positive control), semi-occlusion patch, 3 weeks
Description: Healthy female Caucasian subjects aged 30-65, with skin type II or III and mild to moderate photo damage, were treated on the dorsal forearm for 3 weeks (3 consecutive rounds of 5×24 hour) under semi-occlusion patches. Test articles including active ingredients, vehicle controls, and retinol were applied in a randomized allocation on 6 sites on each forearm. The application dose was 2 mg/cm^2. After 3 week treatment, a 2 mm punch biopsy was obtained from each treatment site and fixed in 10% buffered formalin. Tissue samples then embedded in paraffin, sectioned (5 μm thickness), and stained for skin markers after re-hydration. […] Retinol at a active concentration of 0.05% was used a positive control. Retinol use at a 0.05% active concentration in the semi-occlusion patch vehicle formulation yielded a visual score of approximately 0.56 out of a 4 point scale in HE staining (measuring hematoxylin and eosin staining, an indication of viable epidermal thickness and health) with 63.6% of the subjects showing an improvement; a visual score of 0.6 out of a 4 point scale in M-TC staining (Masson's trichrome staining, assessing total mature fiber-forming collagen in the dermis—mainly Collagen I, […] and Collagen V) with 51.6% of the subjects showing an improvement; a visual score of 0.52 out of a 4 point scale for pro-Col (measuring new synthesis of Collagen I by skin fibroblasts in the dermis) with 51.6% of the subjects showing an improvement; and a visual score of 0.57 out of a 4 point scale for HA (measuring level of hyaluronic acid in both dermis and epidermis) with 50% of the subjects showing an improvement.

CC1=C(/C=C/C(C)=C/C=C/C(C)=C/CO)C(C)(C)CCC1 [Retinol]
subjects showing an improvement, HA: 50%
subjects showing an improvement, HE staining: 63.6%
subjects showing an improvement, M-TC staining: 51.6%
subjects showing an improvement, pro-Col: 51.6%
visual score HA (hyaluronic acid in dermis and epidermis) (out of a 4 point scale): 0.57
visual score HE staining (viable epidermal thickness and health) (out of a 4 point scale): approximately 0.56
visual score M-TC staining (total mature fiber-forming collagen in dermis) (out of a 4 point scale): 0.6
visual score pro-Col (new synthesis of Collagen I) (out of a 4 point scale): 0.52
